Test system: RPMI-8226 multiple myeloma (MM) xenograft
Details: Day 19; 10 mg/kg salmeterol, 0.5 mg/kg bortezomib, or both
Method: Dexamethasone was administered by intraperitoneal (IP) injection daily for thirty-six treatments (QD×36). Bortezomib was injected intravenously (IV) every third day for six treatments (Q3D×6).
Group 1—Vehicle (90% PBS+10% EtOH)
Significant endpoints included mean tumor growth inhibition (TGI) or regression, animal weight loss, and potential toxicity. […] Animals were implanted with cancer cells harvested from tissue culture and allowed to establish tumors in SCID mice. Treatment initiated when the mean tumor volume reached 137 mm^3 in size.

For `OCc1cc(C(O)CNCCCCCCOCCCCc2ccccc2)ccc1O` (stereo not shown) [salmeterol], the “tumor growth inhibition (TGI)” value was 37%.

Reference: US20100009934A1, “BETA ADRENERGIC RECEPTOR AGONISTS FOR THE TREATMENT OF B-CELL PROLIFERATIVE DISORDERS” (CombinatoRx, Incorporated, priority 2008, published 2010)
